Source: EP0633262A1, “Novel isatineoxime derivatives, their preparation and use” (NEUROSEARCH A/S, priority 1993, dated 1995)

Molecular target: AMPA ((RS)-α-amino-3-hydroxy-5-methyl-4-isoxazolepropionic acid) binding site
Experiment: AMPA binding assay (T. Honoré et al., Neuroscience Letters 54, 27-32 (1985))
Conditions: AMPA binding assay as described by T. Honoré et al.; read-out: IC₅₀
Description: In the same assay 8-Methyl-5,7,8,9-tetrahydro-1H-pyrrolo[3,2-h]isoquinoline-2,3-dione-3-oxime has an IC₅₀ of 0.2 µM.

| SMILES | IC50 |
| --- | --- |
| CN1CC=C2C(=C3NC(=O)C(=NO)C3=CC2S(=O)(=O)N(C)C)C1 (centres unmarked) [Example 6, 5-dimethylsulfamoyl-8-Methyl-5,7,8,9-tetrahydro-1H-pyrrolo[3,2-h]isoquinoline-2,3-dione-3-oxime] | 400 nM |
| CN1CC=C2CC=C3C(=NO)C(=O)NC3=C2C1 [Example 7, 8-Methyl-5,7,8,9-tetrahydro-1H-pyrrolo[3,2-h]isoquinoline-2,3-dione-3-oxime] | 200 nM |
